The results in this text go back to patent US11399542B2, “Pesticidally active heterocyclic derivatives with sulfur containing substituents” (SYNGENTA PARTICIPATIONS AG, priority 2017, dated 2022).

The subject of data set [1] is Euschistus heros (Neotropical Brown Stink Bug). As to the kind of experiment: Example B9: Activity against Euschistus heros, sprayed soybean leaf. Format: in vivo. As to conditions: 120 h, application rate 200 ppm, N2 nymphs on soybean leaf, 5 days after infestation, read-out: effect in at least one of the two categories (mortality or growth inhibition). How it is done:
Soybean leaf on agar in 24-well microtiter plates were sprayed with aqueous test solutions prepared from 10′000 ppm DMSO stock solutions. After drying the leaf were infested with N2 nymphs. The samples were assessed for mortality and growth inhibition in comparison to untreated samples 5 days after infestation.

For data set [2], the system named is Spodoptera littoralis (Egyptian Cotton Leaf Worm). As to the kind of experiment: Example B1: Activity against Spodoptera littoralis, sprayed cotton leaf discs. It counts as in vivo. Conditions: foliar, 72 h, application rate 200 ppm, L1 larvae on cotton leaf discs, 3 days after infestation, read-out: control (at least one of mortality, anti-feedant effect, growth inhibition). Here is the method: Cotton leaf discs were placed onto agar in 24-well microtiter plates and sprayed with aqueous test solutions prepared from 10′000 ppm DMSO stock solutions. After drying the leaf discs were infested with five L1 larvae. The samples were assessed for mortality, anti-feeding effect, and growth inhibition in comparison to untreated samples 3 days after infestation. Control of Spodoptera littoralis by a test sample is given when at least one of the categories mortality, anti-feedant effect, and growth inhibition is higher than the untreated sample.

The subject of data set [3] is Aedes aegypti (Yellow Fever Mosquito). As to the kind of experiment: Example B11: Activity against Aedes aegypti, dry deposit in tissue culture plates. Conditions: 200 ppm in ethanol; adult females; after 48 h and/or 24 h. It counts as in vivo. How it is done: Test solutions, at an application rate of 200 ppm in ethanol, were applied to 12 well tissue culture plates. Once the deposits were dry, five, two to five day old adult female Aedes aegypti were added to each well, and sustained with a 10% sucrose solution in a cotton wool plug. Assessment of knockdown was made one hour after introduction, and mortality was assessed at 24 and 48 hours after introduction.

The test system of data set [4] is Spodoptera littoralis (Egyptian Cotton Leaf Worm). As to the kind of experiment: Example B2: Activity against Spodoptera littoralis, systemic via lettuce roots in agar. Format: in vivo. As to conditions: 144 h, test rate 12.5 ppm, lettuce root uptake, 6 days after infestation, read-out: effect in at least one of the three categories (mortality, anti-feeding, or growth inhibition). An excerpt: Test compounds were applied by pipette from 10′000 ppm DMSO stock solutions into 24-well plates and mixed with agar. Lettuce seeds were placed onto the agar and the multi well plate was closed by another plate which contained also agar. After 7 days the compound was absorbed by the roots and the lettuce grew into the lid plate. The lettuce leaves were then cut off into the lid plate. Spodoptera eggs were pipetted through a plastic stencil onto a humid gel blotting paper and the lid plate was closed with it. The samples were assessed for mortality, anti-feedant effect and growth inhibition in comparison to untreated samples 6 days after infestation.

For data set [5], the system named is Myzus persicae (Green Peach Aphid). As to the kind of experiment: Example B6: Activity against Myzus persicae, systemic via roots of pea seedlings. As to conditions: 144 h, test rate 24 ppm, pea seedling roots in test solution, 6 days. Format: in vivo. Here is the method: Roots of pea seedlings infested with an aphid population of mixed ages were placed directly in the aqueous test solutions prepared from 10′000 DMSO stock solutions. The samples were assessed for mortality 6 days after placing seedlings in test solutions.

Data set [6] concerns Frankliniella occidentalis (Western Flower Thrips). Kind of data set: Example B8: Activity against Frankliniella occidentalis, sprayed sunflower leaf discs. Format: in vivo. As to conditions: foliar, 168 h, application rate 200 ppm, mixed ages on sunflower leaf discs, 7 days after infestation. How it is done:
Sunflower leaf discs were placed on agar in 24-well microtiter plates and sprayed with aqueous test solutions prepared from […] stock solutions. After drying the leaf discs were infested with a Frankliniella population of mixed ages. The samples were assessed for mortality 7 days after infestation.

For data set [7], the system named is Diabrotica balteata (Corn Root Worm). Kind of data set: Example B4: Activity against Diabrotica balteata, sprayed maize sprouts. It counts as in vivo. Conditions: 96 h, application rate 200 ppm, L2 larvae on maize sprouts, 4 days after infestation, read-out: effect in at least one of the two categories (mortality or growth inhibition). How it is done: Maize sprouts placed onto an agar layer in 24-well microtiter plates were treated with aqueous test solutions prepared from 10′000 ppm DMSO stock solutions by spraying. After drying, the plates were infested with L2 larvae (6 to 10 per well). The samples were assessed for mortality and growth inhibition in comparison to untreated samples 4 days after infestation.

Data set [8] deals with Plutella xylostella (Diamond Back Moth). Kind of data set: Example B3: Activity against Plutella xylostella, artificial diet, L2 larvae. It counts as in vivo. Conditions: 120 h, application rate 200 ppm, L2 larvae on artificial diet, 5 days after infestation, read-out: effect in at least one of the two categories (mortality or growth inhibition). How it is done:
24-well microtiter plates with artificial diet were treated with aqueous test solutions prepared from 10′000 ppm DMSO stock solutions by pipetting. After drying, the plates were infested with L2 larvae (10 to 15 per well). The samples were assessed for mortality and growth inhibition in comparison to untreated samples 5 days after infestation.

The subject of data set [9] is Bemisia tabaci (Cotton White Fly). As to the kind of experiment: Example B7: Activity against Bemisia tabaci, sprayed cotton leaf discs. It counts as in vivo. Conditions: foliar, 144 h, application rate 200 ppm, adult white flies on cotton leaf discs, 6 days after incubation. How it is done:
Cotton leaf discs were placed on agar in 24-well microtiter plates and sprayed with aqueous test solutions prepared from 10′000 ppm DMSO stock solutions. After drying the leaf discs were infested with adult white flies. The samples were checked for mortality 6 days after incubation.

Data set [10] has as its system Myzus persicae (Green Peach Aphid). As to the kind of experiment: Example B5: Activity against Myzus persicae, sprayed sunflower leaf discs. Conditions: foliar, 144 h, application rate 200 ppm, mixed-age aphids on sunflower leaf discs, 6 days after infestation. Format: in vivo. How it is done:
Sunflower leaf discs were placed on agar in a 24-well microtiter plate and sprayed with aqueous test solutions prepared from 10′000 ppm DMSO stock solutions. After drying, the leaf discs were infested with an aphid population of mixed ages. The samples were assessed for mortality 6 days after infestation.

Data set [11] has as its system Tetranychus urticae (Two-Spotted Spider Mite). As to the kind of experiment: Example B10: Activity against Tetranychus urticae, sprayed bean leaf discs. Format: in vivo. As to conditions: foliar, 192 h. How it is done:
Bean leaf discs on agar in 24-well microtiter plates were sprayed with aqueous test solutions prepared from 10′000 ppm DMSO stock solutions. After drying the leaf discs were infested with a mite population of mixed ages. The samples were assessed for mortality on mixed population (mobile stages) 8 days after infestation.

Bounds are passed on as bounds.

For `CCSc1cc2c(cc1-c1nc3cc(C(F)(F)F)cnc3n1C)n(C#N)c(=O)n2C`, the melting point (commonly the temperature of the solid-liquid transition) was in the range of 255 to 257 °C.
The same measure, in the same setting: under `CCSc1cc2c(cc1-c1nc3cc(C(F)(F)F)cnc3n1C)n(C)c(=O)n2CC` stands 186 to 188 °C; under `CCSc1cc2c(cc1-c1nc3cc(SC(F)(F)F)ccc3o1)n(C)c(=O)n2C`, 206 to 208 °C; under `CCSc1cc2c(cc1-c1nc3cc(C(F)(F)F)ccc3o1)n(C)c(=O)n2C`, 205 to 207 °C.
Turning to `CCS(=O)(=O)c1cc2c(cc1-c1nc3cc(C(F)(F)F)cnc3n1C)n(C)c(=O)n2C` [Compound P3, 5-ethylsulfonyl-1,3-dimethyl-6-[3-methyl-6-(trifluoromethyl)imidazo[4,5-b]pyridin-2-yl]benzimidazol-2-one], the percent effect (mortality or growth inhibition) at 200 ppm in data set [1], in data set [7] and in data set [8] was ≥ 80% each time. Moreover, the percent control (mortality, anti-feedant effect or growth inhibition) at 200 ppm in [2] is ≥ 80%. For the same compound, the “control of Aedes aegypti” value in data set [3] is on record as “at least 80%”. The percent effect (mortality, anti-feeding or growth inhibition) at 12.5 ppm in data set [4] was ≥ 80%. In addition, in data set [5], the mortality (in general, the percentage killed) at 24 ppm is ≥ 80%. Further, the mortality at 200 ppm in data set [6], in [9] and in [10] was ≥ 80% each time.
In the case of `CCn1c(=O)n(C)c2cc(-c3nc4cc(C(F)(F)F)cnc4n3C)c(S(=O)(=O)CC)cc21` [Compound P5, 1-ethyl-6-ethylsulfonyl-3-methyl-5-[3-methyl-6-(trifluoromethyl)imidazo[4,5-b]pyridin-2-yl]benzimidazol-2-one], the percent effect (mortality or growth inhibition) at 200 ppm in data set [1], in data set [7] and in [8] was ≥ 80% throughout. In addition, the percent control (mortality, anti-feedant effect or growth inhibition) at 200 ppm in data set [2] is ≥ 80%. For the same compound, the percent effect (mortality, anti-feeding or growth inhibition) at 12.5 ppm in [4] was ≥ 80%. Also, the mortality at 24 ppm in data set [5] is ≥ 80%. Besides, the mortality at 200 ppm in data set [6], in data set [9] and in data set [10] was ≥ 80% each time.
Consider `CCn1c(=O)n(C)c2cc(S(=O)(=O)CC)c(-c3nc4cc(C(F)(F)F)cnc4n3C)cc21` [Compound P6, 1-ethyl-5-ethylsulfonyl-3-methyl-6-[3-methyl-6-(trifluoromethyl)imidazo[4,5-b]pyridin-2-yl]benzimidazol-2-one], for which the percent effect (mortality or growth inhibition) at 200 ppm in [1], in data set [7] and in data set [8] was ≥ 80% each time. Also, the percent control (mortality, anti-feedant effect or growth inhibition) at 200 ppm in data set [2] is ≥ 80%. Also, in data set [5], the mortality at 24 ppm was ≥ 80%. The mortality at 200 ppm in data set [11], in data set [9] and in [10] was ≥ 80% each time.
On to `CCS(=O)(=O)c1cc2c(nc1-c1nc3cc(C(F)(F)F)cnc3n1C)n(C)c(=O)n2C` [Compound P22, 6-ethylsulfonyl-1,3-dimethyl-5-[3-methyl-6-(trifluoromethyl)imidazo[4,5-b]pyridine-2-yl]imidazo[4,5-b]pyridine-2-one], for which the percent effect (mortality or growth inhibition) at 200 ppm in [1], in data set [7] and in data set [8] was ≥ 80% each time. Moreover, in [2], the percent control (mortality, anti-feedant effect or growth inhibition) at 200 ppm was ≥ 80%. For the same compound, the mortality at 24 ppm in data set [5] is ≥ 80%. Moreover, the mortality at 200 ppm in data set [6], in data set [9] and in data set [10] was ≥ 80% in each case.
